Legend:
[1] = test system: Human retinal explants from 113 day post-conception fetuses; test: Human fetal retinal explant culture, qPCR for RHO expression; type: cell-based; details: 10 μM, vs DMSO
Experimental: Nr2e3 loss-of-function mutations lead to a reduction in rod gene expression. To determine whether the same was true for PR1 (FIG. 6D), explant cultures of P12 retina as above were treated and assayed for other rod photoreceptor genes. After 2 days in culture, PR1 decreased the expression of the rod specific genes Nrl, Nr2e3, Rho, Gnat1, and Pde6b compared to DMSO treatment by qPCR analysis (FIG. 6C). […] To determine the dose-response relationship between PR1 concentration and expression of rod genes, retinas from P12 mice were explanted in media containing DMSO or 0.1, 1, 5, or 10 μM PR1 for 2-3 days and assayed Nrl, Nr2e3, and Rho expression by qPCR. […] PR1 was tested to determine whether it could cause a reduction in Rho expression in human rod photoreceptors as well. Pairs of 113 day post-conception retinas were explanted in media with DMSO or 10 μM PR1 for 7 or 23 days. […]
RNA was isolated using TRIzol (Invitrogen) and cDNA was synthesized using the iScript cDNA synthesis kit (Bio-Rad) following an intervening DNase treatment with RQ1 RNase-free DNase (Promega). SSO Fast (Bio-Rad) was used for quantitative real-time PCR. For analysis, values were normalized to Gapdh and ΔΔCt between DMSO and compound-treated samples was expressed as percent of DMSO treated controls (100*2^ΔΔCt). […]

rhodopsin promoter = test: Dual luciferase rhodopsin promoter reporter assay in HEK293T cells; type: cell-based; details: 10 μM, 2 days
Source text: Nr2e3, Crx, and Nrl are known to activate rod gene expression by forming a complex at the promoters of rod genes. To test whether PR1 might interfere with this complex, a luciferase reporter assay was used. For this assay, the rhodopsin promoter driving firefly luciferase was co-transfected with Nrl, Nr2e3, or Crx or all of these transcription factors together into HEK293T cells. A large synergy in the activation of the rhodopsin reporter was found with the combination of these three transcription factors (FIG. 6G).
HEK293T cells were transfected with 1 μg of the luciferase reporter BR-225Luc, 1 ng of the control pRL-CMV (Promega) and 100 ng of hNRL-pCMVSport6 (Open Biosystems), hCRX-pCMVSport6 (Open Biosystems), or hNR2E3-pcDNA3.1/HisC in 24 well plates using Lipofectamine 3000 reagent (Thermo Fisher Scientific). Transfection reagents were removed the following day and replaced with media containing DMSO or 10 μM PR1 for 2 days. Cells were lysed and firefly and renilla luciferase activity was measured with the Dual-Luciferase Reporter Assay System (Promega) using a 1420 Multilabel Victor3V plate reader.

S opsin+ photoreceptors = test: Injection of timed-pregnant dams at E14 and E17, S opsin+ photoreceptors in P0 pups; type: in vivo, mouse; details: dams injected 100 μl of 50 mM at E14 and E17, pups analysed at P0, vs controls
Experimental: Nr2e3 is expressed in developing rods prior to birth, and so to test whether PR1 could affect prenatal rod development, wild type timed-pregnant dams were injected with 100 μl of 50 mM PR1 at E14 and E17, during peak S cone photoreceptor genesis and the onset of Nr2e3 expression (FIG. 7F). The pups were sacrificed at P0 and their retinas collected for staining and for quantifying S opsin+ photoreceptors. […] To determine if PR1 affected rhodopsin expression in developing rods in vivo, pups were injected with 20 μl of 50 mM PR1 or an equal volume of DMSO at P2 or P3 (FIG. 7I). The pups were sacrificed the following day and analyzed rhodopsin expression by qPCR.
Retinal explants or eyecups were fixed in 4% PFA in 1×PBS for 20 minutes at room temperature and then cryoprotected in 30% sucrose in 1×PBS overnight at 4° C. Samples were embedded in OCT (Sakura Finetek), frozen on dry ice, and then sectioned at 14-16 μm on a cryostat (Leica). Slides were blocked with a solution containing 10% Normal Horse Serum (Vector Labs) and 0.5% Triton X-100 (Sigma-Aldrich) in 1×PBS for 1 hour at room temperature and then stained overnight at 4° C. with primary antibodies diluted in blocking solution. […]

With `Cc1cc(C)cc(NC(=O)CCc2nc3sc4c(c3c(=O)[nH]2)CCCC4)c1` [PR1, N-(3,5-dimethylphenyl)-3-(4-oxo-5,6,7,8-tetrahydro-3H-[1]benzothiolo[2,3-d]pyrimidin-2-yl)propanamide] the Rho expression ([1]; 7 days in culture) was “decreased”, the Rho expression ([1]; 23 days in culture) was “decreased” and the “activation of the rhodopsin promoter reporter” value (rhodopsin promoter; HEK293T transfected with Crx and Nrl) was “large reduction”. For the same molecule, the “activation of the rhodopsin promoter reporter” value (rhodopsin promoter; HEK293T transfected with Nr2e3, Crx and Nrl) was “large reduction” and the “number of S opsin-positive cells in pups” value (S opsin+ photoreceptors) was “increase in the number of S opsin-positive cells”.
